Patent US8765123B1, “Compositions and methods for the treatment and prevention of infections caused by Staphylococcus aureus bacteria” (Rutgers, The State University of New Jersey, priority 2007, dated 2014)
“Also recorded” adds a separate entry of the source.

How the values were obtained:
Format in all cases: cell-based, Staphylococcus aureus
[1] = system: S. aureus SH1000 cells; assay: Autoaggregation and biofilm formation in PET tubes with supplemented TSB medium; conditions: medium supplemented with 100 μg/ml, 16 h
Protocol: (§1) S. aureus Strain SH1000 (Horsburgh et al., 2002. J. Bacteriol. 184:5457-5467) was used in all of the following examples. The bacteria were passaged weekly on blood agar and stored at 4° C. Biofilms were cultured in Tryptic Soy broth (Becton-Dickinson, Sparks, Md.) containing 6 g of yeast extract and 8 g of glucose per liter (TSB medium). All cultures were incubated at 37° C.
These experiments were carried out as described above, except that biofilms were grown in 16-mm×100-mm PET tubes (2 ml culture vol) in a rotary shaker for 16 h.

[2] = system: S. aureus biofilm cells; assay: Killing of biofilm cells in microplate wells, CFU/well enumeration; conditions: 24-h biofilm; deoxyribonuclease I alone, 100 μg/ml for 10 min; FIG. 8
Protocol: Biofilms were grown for 24 h in 96-well microtiter plates as described above. Biofilms were rinsed once with water and then treated with 200 μl of TSB medium containing 100 μg/ml of deoxyribonuclease I. Control wells were treated with 200 μl of TSB medium alone. […] Control wells received 20 μl of water. […] This reaction was carried out in 100 μg/ml in 150 mM NaCl, 1 mM CaCl2 as described above. After 10 min, cells were mixed and then serial dilutions were plated on agar. For S. aureus biofilms treated with deoxyribonuclease I, cells were mixed and then a 50-μl aliquot of cells was diluted in 50 ml of phosphate buffered saline. The cells were passed through an analytical test filter funnel (no. 145-2020; Nalgene, Rochester, N.Y.), and the filter was rinsed with 250 ml of sterile water, aseptically removed from the filter unit, and placed on a blood agar plate. Colonies were enumerated after 24 h.

[3] = system: SH1000 biofilms; assay: Biofilm formation in 96-well microtiter plates in supplemented TSB medium, crystal violet A595
[4] = system: S. aureus Strain SH1000 biofilms; assay: Detachment of pre-formed S. aureus biofilms in microtiter plate wells, crystal violet staining
Protocol: as §1
A biofilm formation assay was carried out as follows. A loopful of cells from an agar plate was transferred to a polypropylene microcentrifuge tube containing 200 μl of TSB medium. The cells were crushed with a disposable pellet pestle, vortexed for 30 sec, diluted to 1 ml in fresh TSB medium, and then passed through a 5-μm pore-size syringe filter to remove large clumps of cells as previously described (Kaplan & Fine, 2002. Appl. Environ. Microbiol. 68:4943-4950). Filtered cells were diluted to 10^3-10^5 CFU/ml in TSB medium. Aliquots of cells (200 μl each) were transferred to the wells of a 96-well tissue-culture-treated polystyrene microtiter plate (Falcon no. 324662, Becton-Dickinson) and the plate was incubated for 24 h. The biofilms were rinsed once with water and then treated with 200 μl of deoxyribonuclease I (bovine deoxyribonuclease I, purchased from Sigma Chemical Company) at 100 μg/ml in 150 mM NaCl, 1 mM CaCl2. Control biofilms were treated with 200 μl of 150 mM NaCl, 1 mM CaCl2 alone. After 10 min at 37° C., biofilms were rinsed with water and then dried. Biofilms were stained for 1 min with 200 μl of Gram's crystal violet stain (catalog no. 23255960, Fisher Scientific, Fair Lawn, N.J.) and then rinsed with water and dried.
The concentration of deoxyribonuclease I was 100 μg/ml and the treatment time was 10 min. In this case, the amount of biofilm biomass remaining in the well was quantitated by measuring the A595 of the crystal violet stained biomass as described above, and the percent of biofilm cell detachment was calculated using the formula: 1−(A595[buffer+deoxyribonuclease I]/A595[buffer alone])×100.

deoxyribonuclease I
biofilm formation in tubes at the air-liquid interface (crystal violet staining) ([1]; FIG. 5): much less biofilm formation; also recorded: inhibited biofilm formation at the air-liquid interface | autoaggregation (clumping) of cells ([1]; rotary shaker, FIG. 4): much less clumping; also recorded: formed smaller aggregates | decrease in CFU/well values (killing of biofilm cells) [2]: resistant to killing; also recorded: did not exhibit a significant decrease | inhibition of biofilm formation (A595 of crystal violet stained biomass), concentration dependence ([3]; increasing concentrations in medium, FIG. 7): dependent on the deoxyribonuclease I concentration; also recorded: inhibited SH1000 biofilm formation in a dose-dependent manner | biofilm colony morphology in microplate wells ([3]; medium supplemented with 100 μg/ml, 24 h, FIG. 6): incapable of forming distinct biofilm colonies; also recorded: formed a dense film that uniformly covered the microwell surface, but which readily detached after gentle rinsing | detachment of biofilm (crystal violet staining material remaining in the well) ([4]; 24-h-old biofilm, 100 μg/ml, 10 min treatment, FIG. 1): significant detachment of the biofilm; also recorded: nearly complete detachment | concentration dependence of biofilm detachment (Absorbance at 595 nm) ([4]; 24-h-old biofilm, 10 min treatment, FIG. 2): dependent on the deoxyribonuclease I concentration | detachment of biofilm (A595 of crystal violet) ([4]; 24-h-old biofilm, concentrations between 0.1 and 10 μg/ml, 10 min, FIG. 2): partial detachment | detachment of biofilm (A595 of crystal violet) ([4]; 24-h-old biofilm, concentrations greater than 10 μg/ml, 10 min, FIG. 2): near complete detachment | detachment of biofilm (A595 of crystal violet) ([4]; 24-h-old biofilm, concentrations less than 0.1 μg/ml, 10 min, FIG. 2): little detachment | detachment of biofilms of different age (percent of biofilm cell detachment from A595) ([4]; biofilms grown for 5, 8, 12 or 24 h, 100 μg/ml, 10 min, FIG. 3): capable of detaching; also recorded: significant detachment of all of the S. aureus biofilms, regardless of their age
